As a reminder, the IC50 is the point on the concentration scale where inhibition reaches its midpoint. In general, inhibition refers to the change of the read-out against control, counted positive when it falls. In general, CC50 refers to the concentration giving 50% cytotoxicity. Low values mean greater toxicity to the cells, high ones lower toxicity to the cells.

The subject of data set [1] is RSV B Washington strain. The data set can be described thus: Assessment of RSV induced CPE in HEp2 cells (RSV B Washington strain). It is filed as cell-based. Conditions: human respiratory syncytial virus, HEp2 cells; for IC50: HEp-2, 144 h, 1 MOI, 6 days, read-out: RSV B CPE IC50; for inhibition at 1 µg/mL: HEp-2, Inhibition (%) at 1 μg/mL, read-out: RSV B CPE % Inhibition. The protocol:
(§1) Assessment of RSV Induced CPE in HEp2 Cells
(§2) HEp2 cells were seeded (10^3/well/50 μL) in 384-well plates (Catalogue number 353962, BD Falcon, Oxford, UK) in […] containing 2 mM L-glutamine and 1 mM sodium pyruvate one day before infection. RSV A2 strain (#0709161v, NCPV, Public Health England, Wiltshire) or RSV B Washington strain (VR-1580, ATCC, Manassas, Va. 20108) virus solutions were prepared in serum free-DMEM with 2 mM L-glutamine and 1 mM sodium pyruvate, and then added (50 μL/well) to achieve a final virus concentration of 1 MOI. Simultaneously test compounds (0.5 μL DMSO solution) were added to 100 μL of HEp2 cell culture with virus solution to provide a final DMSO solution of 0.5%. Plates were incubated (37° C./5% CO2) for 5 days for studies using RSV A2 strain or 6 days for those using RSV B strain, and then resazurin sodium salt (5 μL of 0.03% solution; Sigma-Aldrich, Dorset, UK) was added to each well and the plate incubated for a further 6 hr (37° C./5% CO2). The fluorescence of each well [545 nm (excitation)/590 nm (emission)] was determined using a multi-scanner (Clariostar: BMG, Buckinghamshire, UK). The percentage inhibition for each well was calculated and the IC50, IC75 and IC90 values were calculated from the concentration-response curve generated for each test compound.

Data set [2] can be described thus: Cell viability: resazurin assay. It is filed as cell-based, human. Conditions: human, HEp2 cells. The method, then:
Cell Viability: Resazurin Assay
HEp2 cells were seeded in 384-well plates (10^3/well/50 μL; BD Falcon Ref 353962) in FBS DMEM (5%, containing 2 mM L-glutamine and 1 mM sodium pyruvate) one day before experimentation. Serum-free DMEM (50 μL) was added to test wells while for control wells the media was removed and sterile water (100 μL) was added. Test compounds (0.5 μL DMSO solution) were added to give a final DMSO concentration of 0.5%. Hep2 cells were incubated with each test compound for 5 days (37° C./5% CO2 in 5% FBS) and then resazurin stock solution (5 μL; 0.03%) was added to each well and the plate incubated for a further 6 hr (37° C./5% CO2). The fluorescence of each well at 545 nm (excitation) and 590 nm (emission) was determined using a multi-scanner (Clariostar: BMG Labtech). The percentage loss of cell viability was calculated for each well relative to vehicle (0.5% DMSO) treatment.
Any apparent increase in cell viability associated with test compound treatment relative to vehicle is consequently tabulated as a negative percentage. Where appropriate, a CC50 value was calculated from the concentration-response curve generated from the concentration-response curve for each test compound.
(In general: Resazurin is reduced to fluorescent resorufin, in cell work by metabolically active cells.)

Data set [3] has as its system RSV A2 strain. The data set can be described thus: Assessment of RSV induced CPE in HEp2 cells (RSV A2 strain). Format: cell-based. Conditions: human respiratory syncytial virus, HEp2 cells; for IC50: HEp-2, 120 h, 1 MOI, 5 days, read-out: RSV A2 CPE IC50; for inhibition at 0.1 µg/mL / inhibition at 0.01 µg/mL: HEp-2; for inhibition at 0.1 µg/mL: Inhibition (%) at 0.1 μg/mL, read-out: RSV A2 CPE % Inhibition; for inhibition at 0.01 µg/mL: Inhibition (%) at 0.01 μg/mL. The protocol:
as §1, §2

As to `Cc1cc(C(=O)Nc2ccc(C(=O)N3CCc4cc(C(=O)Nc5ccc(F)cc5F)sc4-c4ccccc43)cc2)c(N2CC3(CCOCC3)C2)nc1C` [Example 45, N-(2,4-difluorophenyl)-6-(4-(5,6-dimethyl-2-(7-oxa-2-azaspiro[3.5]nonan-2-yl)nicotinamido)benzoyl)-5,6-dihydro-4H-benzo[b]thieno[2,3-d]azepine-2-carboxamide], in data set [1], the half-maximal inhibitory concentration (IC50) was 84 nM and the inhibition at 1 µg/mL stood at 68%. The compound further registered a CC50 at 5 days in data set [2] of more than 13600 nM. Further, in data set [3], the IC50 turned out to be 0.11 nM and the inhibition at 0.1 µg/mL came out at 100%.
As for `Cc1ccc(NC(=O)c2cc3c(s2)-c2ccccc2N(C(=O)c2ccc(NC(=O)c4cccnc4N4CC5(CCOCC5)C4)cc2)CC3)c(F)c1` [Example 22, 6-(4-(2-(7-oxa-2-azaspiro[3.5]nonan-2-yl)nicotinamido)benzoyl)-N-(2-fluoro-4-methylphenyl)-5,6-dihydro-4H-benzo[b]thieno[2,3-d]azepine-2-carboxamide], in data set [1], the IC50 is 37.3 nM and the inhibition at 1 µg/mL amounted to 77%. The compound also registered a CC50 at 5 days in data set [2] of more than 14200 nM. Besides, in data set [3], the IC50 was found to be 0.96 nM and the inhibition at 0.1 µg/mL was 96%.
For `O=C(Nc1c(F)cc(F)cc1F)c1cc2c(s1)-c1ccccc1N(C(=O)c1ccc(NC(=O)c3cc4ccccc4nc3N3CC4(CCOCC4)C3)cc1)CC2` [Example 88, 6-(4-(2-(7-oxa-2-azaspiro[3.5]nonan-2-yl)quinoline-3-carboxamido)benzoyl)-N-(2,4,6-trifluorophenyl)-5,6-di-hydro-4H-benzo[b]thieno[2,3-d]azepine-2-carboxamide], in data set [1], the IC50 worked out at 3 nM and the inhibition at 1 µg/mL was 93%. Moreover, the 50% cytotoxic concentration (CC50) at 5 days in data set [2] is more than 12900 nM. Also, in data set [3], the 50% inhibitory concentration (IC50) came out at 0.58 nM and the inhibition at 0.01 µg/mL was found to be 93%.
With `Cc1cnc(N2CC3(CCOCC3)C2)c(C(=O)Nc2ccc(C(=O)N3CCc4cc(C(=O)Nc5ccccc5C)sc4-c4ccccc43)cc2)c1` [Example 35, 6-(4-(5-methyl-2-(7-oxa-2-azaspiro[3.5]nonan-2-yl)nicotinamido)benzoyl)-N-(o-tolyl)-5,6-dihydro-4H-benzo[b] thieno[2,3-d]azepine-2-carboxamide], in data set [1], the IC50 came to 62.8 nM and the inhibition at 1 µg/mL was 70%. The same compound registered a CC50 at 5 days in data set [2] of more than 14300 nM. In addition, in data set [3], the IC50 was determined as 0.14 nM and the inhibition at 0.1 µg/mL came out at 100%.
With `Cc1cnc(N2CC3(CCOCC3)C2)c(C(=O)Nc2ccc(C(=O)N3CCc4cc(C(=O)Nc5ccc(F)cc5F)sc4-c4ccccc43)cc2)c1` [Example 38, N-(2,4-difluorophenyl)-6-(4-(5-methyl-2-(7-oxa-2-aza-spiro[3.5]nonan-2-yl)nicotinamido)benzoyl)-5,6-dihydro-4H-benzo[b]thieno[2,3-d]azepine-2-carboxamide], in data set [1], the IC50 is 18.4 nM and the inhibition at 1 µg/mL amounted to 73%. In data set [2], this compound yielded a CC50 at 5 days of more than 13900 nM. In data set [3], the IC50 was less than 0.014 nM and the inhibition at 0.1 µg/mL was 100%.
As for `O=C(Nc1c(F)cccc1Cl)c1cc2c(s1)-c1ccccc1N(C(=O)c1ccc(NC(=O)c3cc4c(nc3N3CC5(CCOCC5)C3)CCOC4)cc1)CC2` [Example 83, N-(4-(2-((2-chloro-6-fluorophenyl)carbamoyl)-5,6-di-hydro-4H-benzo[b]thieno[2,3-d]azepine-6-carbonyl)phenyl)-2-(7-oxa-2-azaspiro[3.5]nonan-2-yl)-7,8-dihydro-5H-pyrano [4,3-b]pyridine-3-carboxamide], in data set [1], the 50% inhibitory concentration (IC50) amounted to 6.2 nM and the inhibition at 1 µg/mL is 95%. This compound also had a half-maximal cytotoxic concentration (CC50) at 5 days in data set [2] of more than 12800 nM. Further, in data set [3], the IC50 turned out to be 0.15 nM and the inhibition at 0.01 µg/mL came out at 100%.
`O=C(Nc1c(F)cccc1F)c1cc2c(s1)-c1ccccc1N(C(=O)c1ccc(NC(=O)c3cc4c(nc3N3CC5(CCOCC5)C3)CCC4)cc1F)CC2` [Example 79, 6-(4-(2-(7-oxa-2-azaspiro[3.5]nonan-2-yl)-6,7-dihydro-5H-cyclopenta[b]pyridine-3-carboxamido)-2-fluorobenzoyl)-N-(2,6-difluorophenyl)-5,6-dihydro-4H-benzo[b]thieno[2,3-d]azepine-2-carboxamide]: in data set [1], the 50% inhibitory concentration (IC50) stood at 1.8 nM and the inhibition at 1 µg/mL was determined as 93%. The compound further displayed a CC50 at 5 days in data set [2] of more than 13100 nM. Further, in data set [3], the concentration for half-maximal inhibition (IC50) was 2.3 nM and the inhibition at 0.01 µg/mL stood at 92%.
`Cc1cnc(N2CC3(CCOCC3)C2)c(C(=O)Nc2ccc(C(=O)N3CCc4cc(C(=O)Nc5c(C)cccc5C#N)sc4-c4ccccc43)cc2)c1` [Example 62, N-(2-cyano-6-methylphenyl)-6-(4-(5-methyl-2-(7-oxa-2-azaspiro[3.5]nonan-2-yl)nicotinamido)benzoyl)-5,6-dihydro-4H-benzo[b]thieno[2,3-d]azepine-2-carboxamide]: in data set [1], the IC50 came to 0.9 nM and the inhibition at 1 µg/mL amounted to 100%. The same compound registered a CC50 at 5 days in data set [2] of more than 13800 nM. In addition, in data set [3], the concentration for half-maximal inhibition (IC50) worked out at 0.13 nM and the inhibition at 0.01 µg/mL was determined as 89%.
`C#Cc1cnc(N2CC3(CCOCC3)C2)c(C(=O)Nc2ccc(C(=O)N3CCc4cc(C(=O)Nc5c(F)cccc5Cl)sc4-c4ccccc43)cc2)c1` [Example 66, N-(2-chloro-6-fluorophenyl)-6-(4-(5-ethynyl-2-(7-oxa-2-azaspiro[3.5]nonan-2-yl)nicotinamido)benzoyl)-5,6-dihydro-4H-benzo[b]thieno[2,3-d]azepine-2-carboxamide]: in data set [1], the half-maximal inhibitory concentration (IC50) is 4.8 nM and the inhibition at 1 µg/mL was 95%. Also, the CC50 at 5 days in data set [2] was more than 13400 nM. For the same compound, in data set [3], the IC50 stood at 0.15 nM and the inhibition at 0.01 µg/mL worked out at 95%.
Regarding `O=C(Nc1c(F)cccc1F)c1cc2c(s1)-c1ccccc1N(C(=O)c1ccc(NC(=O)c3cc4sccc4nc3N3CC4(CCOCC4)C3)cc1)CC2` [Example 13, 6-(4-(5-(7-Oxa-2-azaspiro[3.5]nonan-2-yl)thieno[3,2-b]pyridine-6-carboxamido)benzoyl)-N-(2,6-difluorophenyl)-5,6-dihydro-4H-benzo[b]thieno[2,3-d]azepine-2-carboxamide], in data set [1], the IC50 turned out to be 0.96 nM and the inhibition at 1 µg/mL is 100%. This compound also displayed a CC50 at 5 days in data set [2] of more than 13100 nM. In data set [3], the IC50 was 0.45 nM and the inhibition at 0.01 µg/mL turned out to be 100%.
As to `[2H]c1c([2H])c(C(=O)N2CCc3cc(C(=O)Nc4c(C)cccc4F)sc3-c3ccccc32)c([2H])c([2H])c1NC(=O)c1cc(C)cnc1N1CC2(CCOCC2)C1` [Example 70], in data set [1], the IC50 is 1.2 nM and the inhibition at 1 µg/mL turned out to be 100%. In addition, the CC50 at 5 days in data set [2] was more than 13900 nM. Moreover, in data set [3], the IC50 was 0.18 nM and testing at 0.01 µg/mL gave an inhibition of 76%.
`O=C(Nc1c(F)cccc1F)c1cc2c(s1)-c1ccccc1N(C(=O)c1ccc(NC(=O)c3cc(C4CC4)cnc3N3CC4(CCOCC4)C3)cc1)CC2` [Example 72, 6-(4-(5-cyclopropyl-2-(7-oxa-2-azaspiro[3.5]nonan-2-yl)nicotinamido)benzoyl)-N-(2,6-difluorophenyl)-5,6-dihydro-4H-benzo[b]thieno[2,3-d]azepine-2-carboxamide]: in data set [1], the IC50 was 3.3 nM and the inhibition at 1 µg/mL is 89%. This compound had a cytotoxic concentration (CC50) at 5 days in data set [2] of more than 13400 nM. In data set [3], the concentration for half-maximal inhibition (IC50) stood at 0.32 nM and the inhibition at 0.01 µg/mL turned out to be 100%.

The values are drawn from patent US10189863B2, “5,6-dihydro-4H-benzo[b]thieno-[2,3-d]azepine derivatives” (PULMOCIDE LIMITED, priority 2014, dated 2019).
